The source of these data is ChEMBL document CHEMBL3860050, “Triterpenoids from Momordica balsamina: Reversal of ABCB1-mediated multidrug resistance” (Bioorg Med Chem, 2016).

Data set [1] concerns the target T1, ATP-dependent translocase ABCB1 (Homo sapiens, UniProt P08183). The data set can be described thus: Inhibition of MDR1-mediated efflux-pump activity in mouse L5178Y cells expressing human MDR1 assessed as forward scattered light at 20 uM preincubated for 10 mins followed by rhodamine-123 addition measured after 20 mins by flow cytometry (reference value: 455.7 to 509.9). Type of data set: cell-based.

The target in data set [2] is T1, ATP-dependent translocase ABCB1. The experiment in a line: Inhibition of MDR1-mediated efflux-pump activity in mouse L5178Y cells expressing human MDR1 assessed as forward scattered light at 2 uM preincubated for 10 mins followed by rhodamine-123 addition measured after 20 mins by flow cytometry (reference value: 455.7 to 509.9). The format is cell-based.
A short description of data set [3]: Antiproliferative activity against mouse L5178Y cells expressing human MDR1 measured after 72 hrs by MTT assay. Type of data set: functional, cell-based. (In general: Formazan colour is commonly taken as a measure of viable cells.)
A short description of data set [4]: Antiproliferative activity against mouse L5178Y cells measured after 72 hrs by MTT assay. The format is functional, cell-based.
The target of data set [5] is T1, ATP-dependent translocase ABCB1. The data set can be described thus: Inhibition of MDR1-mediated efflux-pump activity in mouse L5178Y cells expressing human MDR1 assessed as side scattered light at 2 uM preincubated for 10 mins followed by rhodamine-123 addition measured after 20 mins by flow cytometry (reference value: 194.6 to 286.4). The format is cell-based. A general note: Flow cytometry measures light scatter and fluorescence of single cells or particles in a stream.

Data set [6] has the same target. The experiment in a line: Inhibition of MDR1-mediated efflux-pump activity in mouse L5178Y cells expressing human MDR1 assessed as side scattered light at 20 uM preincubated for 10 mins followed by rhodamine-123 addition measured after 20 mins by flow cytometry (reference value: 194.6 to 286.4). Type of data set: cell-based.
Data set [7] shares this target. The data set can be described thus: Inhibition of MDR1-mediated efflux-pump activity in mouse L5178Y cells expressing human MDR1 assessed as mean fluorescence intensity at 2 uM preincubated for 10 mins followed by rhodamine-123 addition measured after 20 mins by flow cytometry (reference value: 7.1 to 18.6). The format is cell-based.
Data set [8] shares this target. The data set can be described thus: Inhibition of MDR1-mediated efflux-pump activity in mouse L5178Y cells expressing human MDR1 assessed as mean fluorescence intensity at 20 uM preincubated for 10 mins followed by rhodamine-123 addition measured after 20 mins by flow cytometry (reference value: 7.1 to 18.6). Type of data set: cell-based.
Data set [9] has the same target. The data set can be described thus: Inhibition of MDR1-mediated efflux-pump activity in mouse L5178Y cells expressing human MDR1 assessed as fluorescence activity ratio at 2 uM preincubated for 10 mins followed by rhodamine-123 addition measured after 20 mins by flow cytometry. Type of data set: cell-based.
Data set [10] shares this target. The experiment in a line: Inhibition of MDR1-mediated efflux-pump activity in mouse L5178Y cells expressing human MDR1 assessed as fluorescence activity ratio at 20 uM preincubated for 10 mins followed by rhodamine-123 addition measured after 20 mins by flow cytometry. The format is cell-based.
For data set [11] the target is unchanged. The experiment in a line: Inhibition of MDR1 in mouse L5178Y cells expressing human MDR1 assessed as doxorubicin-induced antiproliferative activity by measuring combination index at 5.7:1 compound to doxorubicin ratio measured after 48 hrs by MTT assay. Type of data set: cell-based.

T1 sequence (P08183 whole entry): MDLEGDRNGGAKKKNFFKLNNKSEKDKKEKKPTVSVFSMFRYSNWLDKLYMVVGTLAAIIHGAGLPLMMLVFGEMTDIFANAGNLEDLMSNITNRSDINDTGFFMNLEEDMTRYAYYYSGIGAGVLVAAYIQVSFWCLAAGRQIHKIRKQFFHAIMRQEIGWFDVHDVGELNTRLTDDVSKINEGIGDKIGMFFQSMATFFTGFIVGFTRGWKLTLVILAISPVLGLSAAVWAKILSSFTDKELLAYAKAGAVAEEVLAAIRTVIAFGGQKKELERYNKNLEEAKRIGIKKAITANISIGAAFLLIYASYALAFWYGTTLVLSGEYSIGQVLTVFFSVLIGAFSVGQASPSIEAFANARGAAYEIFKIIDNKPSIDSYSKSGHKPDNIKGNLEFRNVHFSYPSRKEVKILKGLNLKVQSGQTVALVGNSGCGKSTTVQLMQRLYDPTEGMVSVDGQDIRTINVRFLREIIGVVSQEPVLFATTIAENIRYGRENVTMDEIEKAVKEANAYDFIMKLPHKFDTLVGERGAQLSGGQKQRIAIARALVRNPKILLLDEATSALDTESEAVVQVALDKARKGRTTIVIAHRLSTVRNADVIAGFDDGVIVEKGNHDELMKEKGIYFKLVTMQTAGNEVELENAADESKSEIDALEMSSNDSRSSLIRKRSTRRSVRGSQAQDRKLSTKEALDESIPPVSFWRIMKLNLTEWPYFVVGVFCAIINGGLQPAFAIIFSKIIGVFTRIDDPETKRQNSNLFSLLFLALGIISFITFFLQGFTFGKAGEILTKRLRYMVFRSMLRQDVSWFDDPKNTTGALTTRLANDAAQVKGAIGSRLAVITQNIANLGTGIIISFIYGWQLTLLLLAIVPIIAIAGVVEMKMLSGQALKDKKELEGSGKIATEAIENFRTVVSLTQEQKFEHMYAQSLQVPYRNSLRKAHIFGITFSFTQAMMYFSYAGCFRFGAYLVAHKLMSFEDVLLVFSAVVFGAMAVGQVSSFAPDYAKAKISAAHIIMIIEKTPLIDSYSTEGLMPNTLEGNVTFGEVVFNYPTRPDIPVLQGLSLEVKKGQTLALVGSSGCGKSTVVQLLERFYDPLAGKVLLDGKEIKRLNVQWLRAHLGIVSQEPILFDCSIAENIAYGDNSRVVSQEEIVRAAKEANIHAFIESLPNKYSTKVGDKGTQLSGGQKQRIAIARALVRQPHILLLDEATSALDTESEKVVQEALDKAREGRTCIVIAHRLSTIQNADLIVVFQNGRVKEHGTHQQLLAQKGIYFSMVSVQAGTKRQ

With `CO[C@H]1C=C2[C@@H](CC[C@H](O)C2(C)C)[C@]2(C)C[C@@H](O)[C@]3(C)[C@@H]([C@H](C)C[C@@H](O)C=C(C)C)CC[C@@]3(C)[C@H]12` [CUCURBALSAMINOL C], the Activity in [1] turned out to be 564.3; in data set [2] it was 568.5; in data set [5], 241.8; in data set [6], 237.6. In addition, the half-inhibitory concentration (IC50) in data set [3] is 34.6 µM; in data set [4] it was 19.5 µM. Further, the Flu intensity turned out to be 31.6 in [7] and 202.8 in data set [8]. Further, the values for the Ratio in data set [9] and in [10] were 3.1 and 19.8, respectively. In addition, the CI in [11] was 0.416.

Turning to `CO[C@H]1C=C2[C@@H](CC[C@H](O)C2(C)C)[C@]2(C)CC[C@]3(C)[C@@H]([C@H](C)C[C@H](C=C(C)C)O[C@@H]4O[C@H](CO)[C@@H](O)[C@H](O)[C@H]4O)CC[C@@]3(C)[C@H]12`, the Activity in data set [1] stood at 457.3; in data set [2] it was 446.8; in data set [5], 266.8; in [6], 269.2. Further, the IC50 in data set [3] was found to be 32.8 µM; in data set [4], 3.5 µM. Also, the Flu intensity was determined as 12.4 in [7] and 643.1 in [8]. In addition, the Ratio in data set [9] is on record as 1; in data set [10], 49.1. In addition, the CI in [11] stood at 0.956.

As to `CC(C)=C[C@H](O)C[C@@H](C)[C@H]1CC[C@@]2(C)[C@@H]3C(=O)C=C4[C@@H](CC[C@H](O)C4(C)C)[C@]3(C)CC[C@]12C` [BALSAMINOL E], the Activity in data set [1] is listed as 593; in data set [2], 582.7; in [5], 243.4; in data set [6], 234.5. The values for the half-maximal inhibitory concentration (IC50) in data set [3] and in data set [4] were 55.2 µM and 41.3 µM, respectively. Besides, the Flu intensity in data set [7] amounted to 20.8; in [8] it was 663.1. Moreover, the Ratio is 2 in [9] and 64.8 in [10]. In data set [11], the CI was determined as 0.721.

Regarding `CO[C@H]1C=C2[C@@H](CC[C@H](OC(=O)CCC(=O)O)C2(C)C)[C@]2(C)CC[C@]3(C)[C@@H]([C@H](C)C[C@H](C=C(C)C)OC(=O)CCC(=O)O)CC[C@@]3(C)[C@H]12`, the Activity turned out to be 546.7 in data set [1], 545.8 in data set [2], 184.6 in data set [5] and 187 in [6]. Further, the figures for the half-maximal inhibitory concentration (IC50) in [3] and in [4] were 46.9 µM and 16.9 µM, respectively. The Flu intensity in data set [7] is listed as 8.2; in data set [8] it was 39.5. In addition, the Ratio in data set [9] amounted to 1.3; in data set [10] it was 5.9.

On to `C[C@H](C/C=C/C(C)(C)O)[C@H]1CC[C@@]2(C)[C@@H]3[C@@H](O)C=C4[C@@H](CC[C@H](O)C4(C)C)[C@]3(C)C[C@@H](O)[C@]12C` [CUCURBALSAMINOL A], for which the Activity in [1] is recorded as 429; in data set [2], 427.2; in data set [5] it was 254.7; in [6], 252. Besides, the concentration for half-maximal inhibition (IC50) in [3] stood at 63.4 µM; in data set [4], 48.2 µM. Besides, the Flu intensity stood at 8.8 in [7] and 38.2 in [8]. The values for the Ratio in data set [9] and in data set [10] were 0.7 and 2.9, respectively.

Regarding `COc1ccc(C(=O)O[C@@H](C=C(C)C)C[C@@H](C)[C@H]2CC[C@@]3(C)[C@@H]4[C@@H](OC)C=C5[C@@H](CC[C@H](O)C5(C)C)[C@]4(C)CC[C@]23C)cc1` [KARAVOATE M], the Activity was 531.9 in data set [1], 526 in data set [2], 192.3 in data set [5] and 181.8 in [6]. In addition, the concentration for half-maximal inhibition (IC50) was 87.5 µM in data set [3] and 59.4 µM in [4]. The Flu intensity in data set [7] stood at 12.3; in [8], 11.4. In addition, the Ratio is reported as 1.8 in [9] and 1.7 in [10].

With `CC(C)=C[C@H](O)C[C@@H](C)[C@H]1CC[C@@]2(C)[C@@H]3C(O[C@H]4O[C@@H](CO)[C@H](O)[C@@H](O)[C@@H]4O)C=C4[C@@H](CC[C@H](O)C4(C)C)[C@]3(C)CC[C@]12C` (stereo not given in full), the Activity in data set [1] stood at 573; in data set [2] it was 557.9; in [5], 235.6; in data set [6] it was 236.9. Further, the 50% inhibitory concentration (IC50) in data set [3] came out at 54.2 µM; in [4] it was 19.2 µM. The Flu intensity in data set [7] was 10.7; in data set [8], 23.6. Further, the Ratio in data set [9] came out at 1; in data set [10] it was 2.3.

For the compound `CO[C@H]1C=C2[C@@H](CC[C@H](O)C2(C)C)[C@]2(C)CC[C@]3(C)[C@@H]([C@H](C)C[C@H](C=C(C)C)OC(=O)c4ccc([N+](=O)[O-])cc4)CC[C@@]3(C)[C@H]12` [KARAVOATE I], the Activity in [1] was 534.1; in data set [2] it was 537.3; in data set [5], 184.1; in [6], 182.9. For the same compound, the IC50 in data set [3] amounted to 60.4 µM; in [4], 29 µM. Also, the Flu intensity in data set [7] was determined as 14.3; in [8] it was 25.9. Further, the Ratio in [9] was 2.1; in data set [10], 3.9.

Regarding `CO[C@H]1C=C2[C@@H](CC[C@H](O)C2(C)C)[C@]2(C)CC[C@]3(C)[C@@H]([C@H](C)C[C@H](C=C(C)C)OC(=O)/C=C/c4ccccc4)CC[C@@]3(C)[C@H]12` [KARAVOATE O], the Activity in data set [1] amounted to 505.9; in [2], 496.9; in data set [5] it was 197.9; in data set [6] it was 206.9. Further, the half-inhibitory concentration (IC50) in data set [3] is 90 µM; in data set [4] it was over 133 µM. Besides, the Flu intensity in data set [7] is 10; in data set [8] it was 11. The results for the Ratio in [9] and in [10] were 1.3 and 1.4, respectively.

Turning to `CC(C)=CC(=O)C[C@@H](C)[C@H]1CC[C@@]2(C)[C@@H]3C(=O)C=C4[C@@H](CC[C@H](O)[C@]4(C)CO)[C@]3(C)CC[C@]12C` [BALSAMINOL C], the Activity in data set [1] turned out to be 502.2; in data set [2], 502.3; in [5], 205.4; in data set [6], 195.7. The IC50 in data set [3] stood at 42.6 µM; in data set [4], 19 µM. Also, the Flu intensity in data set [7] is 22.3; in [8] it was 1537.8. In addition, the Ratio came out at 2.9 in data set [9] and 198.9 in [10]. The CI in data set [11] was 0.268.

In the case of `CO[C@H]1C=C2[C@@H](CC[C@H](OC(=O)/C=C/c3ccccc3)C2(C)C)[C@]2(C)CC[C@]3(C)[C@@H]([C@H](C)C[C@H](C=C(C)C)OC(=O)/C=C/c4ccccc4)CC[C@@]3(C)[C@H]12` [KARAVOATE P], the Activity is listed as 503 in data set [1], 528 in data set [2], 191.2 in data set [5] and 177 in data set [6]. For the same compound, the half-maximal inhibitory concentration (IC50) in data set [3] and in data set [4] was over 133 µM throughout. The Flu intensity in data set [7] was determined as 6.9; in data set [8] it was 18.1. Further, the Ratio in [9] was found to be 1; in data set [10], 2.7.

Regarding `CC(C)=C[C@H](O)C[C@@H](C)[C@H]1CC[C@@]2(C)[C@@H]3C=C[C@@]45OC[C@]3(CC[C@]12C)[C@@H]4CC[C@H](O)C5(C)C` [KARAVILAGENIN E], the Activity was 474 in [1], 568.8 in data set [2], 234.2 in data set [5] and 242 in [6]. In addition, the concentration for half-maximal inhibition (IC50) stood at 45.2 µM in [3] and 21.3 µM in data set [4]. The values for the Flu intensity in data set [7] and in [8] were 38.4 and 743.8, respectively. For the same compound, the Ratio in data set [9] was 3.8; in data set [10] it was 72.6. In addition, the CI in data set [11] is 0.437.

In the case of `CO[C@H]1C=C2[C@@H](CC[C@H](O)C2(C)C)[C@]2(C)CC[C@]3(C)[C@@H]([C@H](C)C[C@H](C=C(C)C)OC(=O)CCC(=O)O)CC[C@@]3(C)[C@H]12`, the Activity in [1] is 540.1; in [2], 545.2; in data set [5] it was 184.1; in data set [6] it was 185.6. The values for the IC50 in data set [3] and in data set [4] were 40.6 µM and 20.8 µM, respectively. In addition, the results for the Flu intensity in [7] and in data set [8] were 7.5 and 28, respectively. The Ratio is given as 1.1 in data set [9] and 4.2 in [10].

In general, IC50 refers to the concentration needed to halve the response being measured. Read a low IC50 as greater potency.
